Reference: patent publication US8377922B2, “Benzazepinone compound” (Ube Industries, Ltd., priority 2007, dated 2013)
Counter-ions that a name gives are not always drawn.

Experiments:
[1] = system: αvβ6 expressed cells (HT-29 cells); experiment: Cell adhesion test of αvβ6 expressed cell; type: cell-based; details: binding to human fibronectin, read-out: αvβ6 expressed cells adhesion inhibiting IC50 value
Protocol: The experiment was carried out by partially modifying the method of Goodman et al. (J. Med. Chem., 45, 1045 (2002)).
Human fibronectin (available from CHEMICON) was adjusted to […] with PBS. This was applied on the 96-well plate (MS9586F, available from SUMIRON) with 100 μL/well, coating was carried out at room temperature for 1 hour, and the coating solution was removed and dried. Thereafter, a blocking treatment was carried out with 1.0% BSA dissolved in DMEM for 1 hour, and washed with PBS, and this was used as a coating plate in the adhesion test. HT-29 cells (available from Dainippon Sumitomo Pharma Co., Ltd.) cultured in McCoy's 5A medium containing 10% FBS were detached by using trypsin-ethylenediamine tetraacetic acid, washed with PBS and recovered. Then, the cells were suspended in DMEM to prepare a HT-29 cells suspension. DMEM solution containing the HT-29 cells and a compound to be tested were each added to human fibronectin coating plates each in an amount of 50 μL/well to start the adhesion test.
The adhesion test was carried out in a 5% carbonic acid gas incubator (37° C.) for 2 hours. After completion of the adhesion test, the supernatant was removed by aspiration, and the plates were washed with PBS. Then, Crystal violet staining was carried out, and the number of cells was measured. A concentration (IC50 value) of the compound to be tested necessary for inhibiting 50% of binding to human fibronectin was calculated by using EXSAS (available from Arm Systex Co., Ltd.).

[2] = system: αvβ3 expressed cells (HUVEC); experiment: Cell adhesion test of αvβ3 expressed cell; type: cell-based; details: binding to human vitronectin, 50% human serum-containing DMEM, read-out: αvβ3 expressed cells adhesion inhibiting IC50 value
Protocol: The experiment was carried out by partially modifying the method of Juliano et al. (Exp. Cell Res., 225(1), 132 (1996)).
Human vitronectin (available from CHEMICON) was adjusted to 10 μg/mL with phosphate buffered physiological saline (hereinafter abbreviated as PBS). This was applied onto the 96-well plate (MS9586F, available from SUMIRON) with 100 μL/well, coating was carried out at room temperature for 1 hour, and the coating solution was removed and the plate was dried. Thereafter, blocking treatment was carried out with 1.0% BSA dissolved in Dulbecco's Modified Eagle Medium (hereinafter abbreviated as DMEM) for 1 hour, washed with PBS, and the resulting material was used for the adhesion test as a coating plate. HUVEC (human umbilical endothelial cells) (available from Clonetics Corp.) cultured in endothelian cell basal medium EBM2 (available from Clonetics Corp.) containing EGM-2 SingleQuot Kit suppi. & growth factors EGM2 (available from Clonetics Corp.) and 10% fetal bovine serum (hereinafter abbreviated as FBS) were detached by using trypsin-ethylenediamine tetraacetic acid, washed by using PBS and recovered, and then, suspended in 50% human serum-containing DMEM to prepare cell suspension of HUVEC. […]
The adhesion test was carried out in a 5% carbonic acid gas incubator (37° C.) for 1 hour. […] Crystal violet staining was carried out, and the number of stained cells was measured. […]

IC50 [1] [nM] | Structure (SMILES) | IC50 [2] [nM]
> 100000 | CNc1cccc(CCOc2ccc3c(c2)CN(CC(F)(F)F)C(=O)C(CC(=O)O)C3)n1 (racemic) [Compound A, 8-[2-[6-(methylamino)-pyridin-2-yl]-1-ethoxy]-3-oxo-2-(2,2,2-trifluoroethyl)-2,3,4,5-tetrahydro-1H-2-benz-azepin-4-acetic acid, reference compound] | 
441 | O=C(O)CC1Cc2ccc(OCCc3cn4c(n3)NCCC4)cc2CN(CC(F)(F)F)C1=O (stereo not shown) [Example 2, 3-oxo-8-[2-(5,6,7,8-tetrahydroimidazo[1,2-a]pyrimidin-2-yl)ethoxy]-2-(2,2,2-tri-fluoroethyl)-2,3,4,5-tetrahydro-1H-2-benzazepin-4-acetic acid trifluoroacetate] | 61
296 | O=C(O)C[C@@H]1Cc2ccc(OCCc3cn4c(n3)NCCC4)cc2CN(CC(F)(F)F)C1=O [Example 4, (4S)-3-oxo-8-[2-(5,6,7,8-tetrahydroimidazo[1,2-a]pyrimidin-2-yl)ethoxy]-2-(2,2,2-trifluoroethyl)-2,3,4,5-tetrahydro-1H-2-benzazepin-4-acetic acid] | 
